Results on two molecules are retold here after patent US11046647B2, “Activators of the unfolded protein response” (The Board of Trustees of the University of Illinois, priority 2018, dated 2021).

In series [1] the test system is TYS-Luc cells. The experiment in a line: Long-term cell culture experiment (treat 2 weeks, regrow 4 weeks), MTS, TYS-Luc. It counts as cell-based, human. The conditions noted are these: 1 μM for 2 weeks, then 4 weeks without drug. As to the method:
To simulate the effect of several weeks of treatment of a tumor in a mouse xenograft, long-term cell culture experiments were performed. TYS-Luc cells (T47DERαY537S-Luc cells; ERαY537S is the most lethal ERα mutation seen in metastatic breast cancer) were plated at 4,000 cells/well in 96 well plates. […] After 2 weeks (medium change every 2 days) cell number was determined using MTS and a standard curve of absorbance versus cell number for TYS-Luc cells. Notes: (i) Bars denote the BHPI and (−)-105 arms of the experiment. No drug is present during regrow. […] This allows any surviving cells to regrow. After 4 weeks the cells were assayed using MTS. […] (Note: Visual inspection of the wells confirmed that there were no cells in the well treated for 2 weeks with active (−)-105.) To test whether the cells that regrew after BHPI treatment were resistant to BHPI they were re-treated for another cycle (BHPI Retreat) and shown to retain sensitivity to BHPI killing. (n=8 biological replicates ±SEM.

The subject of series [2] is TYS-Luc and TDG-Luc cells. Nature of the series: Xenograft studies using TYS-Luc and TDG-Luc cells (BHPI). It counts as in vivo, mouse. The conditions noted are these: after 4 weeks. The text has this: In xenograft studies using TYS-Luc and TDG-Luc cells after 4 weeks the vehicle control breast tumors had roughly quadrupled in cells.
In series [3] the test system is CaOV-3 ovarian cancer cells. Nature of the series: Automated Trypan Blue exclusion cell death assay, Caov-3. In kind it is cell-based, human. The conditions noted are these: 24 hours. As to the method:
FIG. 33. 105, but not BHPI, kills therapy-resistant ovarian CaOV-3 ovarian cancer cells. (±)-105; Cell death assay: Automated Trypan Blue exclusion. (24 hours post (±)-105)
(§1) TRYPAN BLUE: For decades, viable cells have been measured by their ability to exclude the dye Trypan Blue. […] Dead cells, which have lost membrane integrity, take up the dye and are blue. Thus, the percentage of dead cells is the percentage of cells that are Trypan Blue positive out of the total cell population. Quantitative assessment of Trypan Blue uptake uses a cell counter from Fisher. Since the assay is instrument based, there is no observer bias in determining the percentage of Trypan Blue positive cells.
TRYPAN BLUE ASSAYS: Assays are performed on cells in 6 well plates: 300,000 cells are plated in each well of a 6-well plate in 3 ml of medium. After 24 hours, the DMSO vehicle or the indicated compound is added (in 1000th of the vol.) The cells incubated for an additional 24 hours, and then harvested in 0.25 ml of trypsin, followed after harvest by 0.75 ml of medium. The cells are spun down and resuspended in 100-200 μl of medium left that is over the cell pellet (resuspend cells by pipetting up and down a few times). Add 10 μl to 10 μl of trypan blue. Then 10 μl is inserted into the counting slide. […]

A further series relates to T47D, TYS and TDG cells. Nature of the series: MTS proliferation assay (4 days), T47D, TYS and TDG. It counts as cell-based, human. As to the method:
FIG. 30 compares the ability of BHPI and test compounds to inhibit proliferation of T47D, TYS and TDG cells. T47D cells were in medium containing 10 FBS (which contains estrogen), TYS-4 and TDG-1 cells were in medium containing 10% cd-FBS (estrogen depleted). Cells are plated at 2,000 cells/well in 96 well plates. After 24 hours in medium containing FBS or charcoal-dextran treated FBS (depleted of endogenous estrogens), the indicated concentration of each compound (in DMSO at 1/1000th of the volume of medium) was added. After 2 days the medium was changed, and the compounds were added again. After 2 additional days (4 days total) MTS assays are used to evaluate cell proliferation. (n=6 ±S.E.M.).
In general terms: Tetrazolium dyes change colour on reduction, which living cells bring about.

Series [4] has as its system partially BHPI-resistant T47D clones 1,3,8, and 11. Nature of the series: MTS growth assay, partially BHPI-resistant T47D clones. It counts as cell-based, human. The conditions noted are these: 100 nM and 1 μM; 4 days. As to the method: (§2) ERα containing T47D human breast cancer cells able to survive in 1 μM BHPI were selected by clonal outgrowth. The effect of 100 nM and 1 μM BHPI and (−)-105 on growth of the (BHPI-sensitive) parental T47D cells and partially BHPI-resistant T47D clones 1,3,8, and 11 was evaluated. 4,000 cells/well were plated. Cell number was determined by MTS assay from a standard curve of absorbance versus cell number. […] Thus, in 4 days (−)-105 killed some, but not all, of the resistant cells.

The next series deals with parental T47D cells. The experiment in a line: MTS growth assay, parental T47D cells. In kind it is cell-based, human. To be noted: 100 nM and 1 μM; 4 days. As to the method: as §2
Series [5] relates to ERα Negative MCF-10A cells. The experiment in a line: Trypan Blue exclusion cell death assay, MCF-10A. In kind it is cell-based. To be noted: 75 nM, 24 hours.
Excerpt: as §1
TRYPAN BLUE ASSAYS: Assays are performed on cells in 6 well plates: 300,000 cells are plated in each well of a 6-well plate in 3 ml of medium. After 24 hours, the DMSO vehicle or the indicated compound is added (in 1000th of the vol.) The cells incubated for an additional 24 hours, and then harvested in 0.25 ml of trypsin, followed after harvest by 0.75 ml of medium. The cells are spun down and resuspended in 100-200 μl of medium left that is over the cell pellet (resuspend cells by pipetting up and down a few times). Add 10 μl to 10 μl of trypan blue. Then 10 μl is inserted into the counting slide. After inserting the slide into the Fisher TC20 counting is automatic (these many cells are needed because an accurate ratio of Trypan Blue positive to Trypan Blue negative cells requires about 200 cells in the field the instrument counts).
In FIG. 28, neither the test compounds nor BHPI kill non-tumorigenic ERα Negative MCF-10A breast cells. ERα Negative MCF-10A cells were maintained for 24 hours in DMSO vehicle or 75 nM of BHPI or 75 nM of each of the indicated test compounds: 4, 6 and 105. Cell death was determined using the instrument-based Trypan Blue exclusion assay. (n=3±SEM).

Series [6] relates to ERα positive breast cancer. The experiment in a line: Mouse xenograft model of ERα positive breast cancer (BHPI). In kind it is in vivo. To be noted: reasonable doses.
The subject of series [7] is TYS-Luc cells. The experiment in a line: Cell death with or without thapsigargin, TYS-Luc. To be noted: 1 hour. In kind it is cell-based, human. The text has this:
TYS-Luc cells were maintained in DMSO vehicle (Veh) or BHPI, or (−)-105 with or without thapsigargin (THG) for the indicated times. Blocking the decline in ATP levels (FIG. 19) with THG inhibited (−)-105-induced cell death.

In series [8] the test system is intracellular ATP levels in TYS-Luc cells. Nature of the series: Intracellular ATP levels, TYS-Luc cells. In kind it is cell-based, human. The conditions noted are these: 10,000 nM thapsigargin, 1 hr. As to the method: TYS-Luc cells were maintained DMSO vehicle (Veh), 1,000 nM BHPI, 1,000 nM (−)-105 with and without 10,000 nM thapsigargin (THG) for the indicated times. ATP levels were determines using a kit and relative ATP levels were from a standard curve. […] (n=3±SEM).

With `Cc1cccc2c1NC(=O)C2(c1ccc(O)cc1)c1ccc(O)cc1` [BHPI, reference compound], the “regrowth of cells after drug removal” value in the series on TYS-Luc cells [1] is listed as “robust regrowth”. In series [2], the tumor regression is recorded as 97%-99.5%. For the same molecule, the “killing of Caov-3 cells” value in [3] is given as “blocks growth of Caov-3 cells but does not kill them”. The “tumor growth / detectability” value in the series with OVCAR-3 cells (OVCAR-3 orthotopic xenograft) was “strongly reduced tumor growth”. Further, the tolerability in mice entry with OVCAR-3 cells (both xenograft studies) is recorded as “well tolerated”. In the series on T47D, TYS and TDG cells, the inhibition of proliferation result is “effectively inhibit proliferation”. Also, the “effect on growth / cell number” value in [4] was “inhibited growth but could not stop growth of the resistant clones”; in the series on parental T47D cells, “blocked growth and killed many of the T47D cells”. Moreover, the “cell death of MCF-10A cells” value in series [5] is listed as “neither BHPI nor any of the test compounds induce significant death”. Moreover, the tumor growth result in series [6] is “stopped tumor growth and induced rapid and substantial tumor regression”.

For the molecule `C/C=C(/C)C(=O)O[C@H]1C(C)=C2[C@H]([C@@H]1OC(=O)CCCCCCC)[C@@](C)(OC(C)=O)C[C@H](OC(=O)CCC)[C@@]1(O)[C@H]2OC(=O)[C@@]1(C)O` [THG, thapsigargin, reference compound], the “inhibition of (−)-105-induced cell death” value in the series with TYS-Luc cells [7] was “strong inhibition”. For the same molecule, in series [8], the “block of (−)-105-induced decline in intracellular ATP levels” value is listed as “completely blocked”.
